Measured values taken from US8063012B2, “Neuroprotective peptide inhibitors of AP-1 signaling and uses therefor” (Phylogica Limited, priority 2006, dated 2011).
Non-standard residues stand in square brackets, D forms with d. Residues, ends and D or L forms follow the SMILES beside them.

Experiments:
[1] = test system: primary cortical neuronal cultures; assay: Light microscopy assessment of neuronal damage after glutamate exposure; type: cell-based, rat; conditions: for neuronal morphology (cellular rounding, survival) after glutamate exposure: light microscopy, one hour to 18 hours post glutamate exposure; for neurons that appeared intact and viable: Sprague-Dawley, rat, 18 hours
Method: Cortical neuronal cultures were established as described by Meloni et al., Neuroscience 108, 17-26, 2001. Briefly, cortical tissue from E18-E19 Sprague-Dawley rats was dissociated in Dulbelcco's Modified Eagle Medium (DMEM; Invitrogen, Australia) supplemented with 1.3 mM L-cysteine, 0.9 mM NaHCO3, 10 units/ml papain (Sigma, USA) and 50 units/ml DNase (Sigma) and washed in cold DMEM/10% (v/v) horse serum. Neurons were resuspended in Neurobasal (NB; Invitrogen) containing 2% B27 supplement (B27; Invitrogen). Before seeding, culture vessels comprising either a 96-well plastic plate or 24-well plastic plate with 13 mm glass coverslips (ProSciTech, Australia), were coated with poly-D-lysine (50 μg/mL; 70-150K; Sigma) and incubated overnight at room temperature. The poly-D-lysine was removed and replaced with NB (containing 2% B27; 4% fetal bovine serum; 1% horse serum; 62.5 μM glutamate; 25 μM 2-mercaptoethanol; and 30 μg/mL streptomycin and 30 μg/mL penicillin). Neurons were plated to obtain approximately 10,000 viable neurons for each well of a 96-well plate, or 200,000 viable neurons per well of a 24-well plate, on day in vitro (DIV) […]. Neuronal cultures were maintained in a CO2 incubator (5% CO2, 95% air balance, 98% humidity) at 37° C. On DIV 4, one third of the culture medium was removed and replaced with fresh NB/2% B27 containing the mitotic inhibitor, cytosine arabinofuranoside (Sigma) at 1 μM concentration. On DIV 8, one half of the culture medium was replaced with NB/2% B27. Cultures were used on DIV 11 or 12, and consisted of >95% neurons.
(§1) To induce glutamate excitotoxicity in the cortical neuronal cultures (96-well plate format), 50 μl of conditioned media containing 200 μM glutamate was added to culture wells containing 50 μl conditioned media (100 μM final glutamate concentration). Cultures were incubated at 37° C. in a CO2 incubator for 5 minutes, after which time the media was replaced with 100 μl of 50% NB/2% N2 and 50% balance salt solution (NB/N2:BSS).
(§2) Eighteen hours after glutamate exposure, neuronal cultures were examined by light microscopy for qualitative assessment of neuronal damage. Neuronal viability was quantitatively measured by 3-(4,5,dimethyliazol-2-yl)-5-(3-carboxymethoxy-phenyl)-2-(4-sulfophenyl)-2H-tetrazolium salt (MTS) assay (Promega, Australia). The MTS assay measures the mitochondrial conversion of the tetrazolium salt to a water-soluble brown formazan salt, which is detected spectrophotometrically at 495 nm. MTS absorbance data was converted to reflect proportional cell viability relative to both the untreated and glutamate treated controls. […] All assays were performed with quadruplicate sister neuronal cultures repeated a minimum of four times independently.

[2] = test system: primary cortical neuronal cultures; assay: Glutamate excitotoxicity in primary cortical neuronal cultures, neuronal viability by MTS assay; type: cell-based, rat; conditions: for neuroprotection compared with JNKI-1D-TAT: 1 μM concentration
Method: Neurons were resuspended in Neurobasal (NB; Invitrogen) containing 2% B27 supplement (B27; Invitrogen). Before seeding, culture vessels comprising either a 96-well plastic plate or 24-well plastic plate with 13 mm glass coverslips (ProSciTech, Australia), were coated with poly-D-lysine (50 μg/mL; 70-150K; Sigma) and incubated overnight at room temperature. […] Neurons were plated to obtain approximately 10,000 viable neurons for each well of a 96-well plate, or 200,000 viable neurons per well of a 24-well plate, on day in vitro (DIV) […]. […] On DIV 4, one third of the culture medium was removed and replaced with fresh NB/2% B27 containing the mitotic inhibitor, cytosine arabinofuranoside (Sigma) at 1 μM concentration. On DIV 8, one half of the culture medium was replaced with NB/2% B27.
as §1
Untreated and glutamate-treated control samples received media additions with and without glutamate respectively.
as §2

[3] = Sprague-Dawley, rat, 18 h, 5 μM
[4] = 2 μM extracellular concentration

SMILES | neuronal morphology (cellular rounding, survival) after glutamate exposure [1] | neuroprotection compared with JNKI-1D-TAT [2] | neuronal viability following glutamate excitotoxicity [2, 3] [%] | neurons that appeared intact and viable [1] | neuroprotection following glutamate excitotoxicity [2, 4] | further results
CC(C)C[C@@H](NC(=O)[C@@H](Cc1ccccc1)NC(=O)[C@H]1CCCN1C(=O)[C@@H](CCC(N)=O)NC(=O)[C@H](NC(=O)[C@H]1CCCN1C(=O)[C@@H](CCCNC(=N)N)NC(=O)[C@@H](CO)NC(=O)[C@@H](CCC(N)=O)NC(=O)[C@@H](CC(=O)O)NC(=O)[C@H](N)[C@H](C)O)C(C)C)C(=O)N[C@H](CC(N)=O)C(=O)N[C@H](CC(C)C)C(=O)N[C@@H](C(=O)N[C@@H](C(=O)N1CCC[C@@H]1C(=O)N[C@H](CCCNC(=N)N)C(=O)N[C@H](CCCCN)C(=O)N1CCC[C@@H]1C(=O)N[C@H](CCCNC(=N)N)C(=O)N1CCC[C@@H]1C(=O)N1CCC[C@@H]1C(=O)N[C@H](CCCNC(=N)N)C(=O)N[C@H](CCCNC(=N)N)C(=O)N[C@H](CCCNC(=N)N)C(=O)N[C@H](CCC(N)=O)C(=O)N[C@H](CCCNC(=N)N)C(=O)N[C@H](CCCNC(=N)N)C(=O)N[C@H](CCCCN)C(=O)N[C@H](CCCCN)C(=O)N[C@H](CCCNC(=N)N)C(=O)NCC(=O)O)[C@H](C)O)[C@H](C)O [JNK1-1D-TAT, reference compound] | did not begin to round and survived glutamate excitotoxicity | – | – | – | – | neuronal viability following glutamate excitotoxicity ([2]; 5 μM extracellular peptide, 100 μM glutamate 5 min, MTS 18 h, no insult = 100%, listed as JNKI-1 D-TAT): 75%; neuronal viability following glutamate excitotoxicity ([2]; 5 μM extracellular peptide, 100 μM glutamate 5 min, MTS 18 h, no insult = 100%, listed as JNKI-1D-TAT): 89%; extracellular concentration providing significant neuroprotection ([2]; glutamate excitotoxicity, dose response 0.1-10 μM): ≥ 2 µM; concentrations at which significant neuroprotection is exhibited ([2]; glutamate excitotoxicity, p<0.0077): micromolar concentrations
CC[C@@H](C)[C@@H](NC(=O)[C@H](N)Cc1ccc(O)cc1)C(=O)N[C@H](Cc1ccc(O)cc1)C(=O)N1CCC[C@@H]1C(=O)N[C@H](Cc1ccc(O)cc1)C(=O)N[C@H](C)C(=O)N[C@H](Cc1ccc(O)cc1)C(=O)N[C@H](CO)C(=O)N[C@H](CCC(N)=O)C(=O)N[C@H](CC(N)=O)C(=O)N[C@@H](C(=O)N[C@H](CC(C)C)C(=O)NCC(=O)N[C@H](CCCNC(=N)N)C(=O)N[C@H](CCCNC(=N)N)C(=O)N[C@H](CCCNC(=N)N)C(=O)N[C@H](CCC(N)=O)C(=O)N[C@H](CCCNC(=N)N)C(=O)N[C@H](CCCNC(=N)N)C(=O)N[C@H](CCCCN)C(=O)N[C@H](CCCCN)C(=O)N[C@H](CCCNC(=N)N)C(=O)NCC(=O)O)[C@H](C)CC [PYC19D-TAT] | – | greater neuroprotection than JNKI-1D-TAT | 68 | – | – | neuroprotection following glutamate excitotoxicity ([2]; 1 μM extracellular concentration): significant neuroprotection; neuroprotection of D-isoform compared with L-isoform ([2]; concentrations higher than 1 μM): clearly provides enhanced neuroprotection
CC[C@@H](C)[C@@H](NC(=O)[C@@H](CCC(=O)O)NC(=O)[C@@H](CO)NC(=O)[C@@H](CO)NC(=O)[C@@H](CO)NC(=O)[C@@H](CCCCN)NC(=O)[C@@H](CCCNC(=N)N)NC(=O)[C@@H](CCC(=O)O)NC(=O)[C@H](N)CCCNC(=N)N)C(=O)NCC(=O)NCC(=O)N[C@H](CO)C(=O)N[C@H](CCCNC(=N)N)C(=O)N[C@@H](C(=O)N[C@H](CO)C(=O)N[C@H](CCC(N)=O)C(=O)N[C@H](Cc1ccc(O)cc1)C(=O)N[C@H](C)C(=O)NCC(=O)O)[C@H](C)CC [PYC35D, Arg Glu Arg Lys Ser Ser Ser Glu Ile Gly Gly Ser Arg Ile Ser Gln Tyr Ala Gly] (H-[dR][dE][dR][dK][dS][dS][dS][dE][dI]GG[dS][dR][dI][dS][dQ][dY][dA]G-OH; N-terminus and C-terminus assumed) | displayed cellular rounding | – | – | 2-5% | – | –
CC[C@@H](C)[C@@H](NC(=O)[C@@H](CCCCN)NC(=O)[C@H]1CCCN1)C(=O)N[C@H](CO)C(=O)N[C@H](CCC(N)=O)C(=O)N[C@H](Cc1ccc(O)cc1)C(=O)NCC(=O)N[C@H](CCC(N)=O)C(=O)N[C@H](CCCNC(=N)N)C(=O)N[C@H](CCCNC(=N)N)C(=O)N[C@H](CCCNC(=N)N)C(=O)NCC(=O)N[C@H](CCC(N)=O)C(=O)N[C@H](CC(C)C)C(=O)NCC(=O)O [PYC36D, Pro Lys Ile Ser Gln Tyr Gly Gln Arg Arg Arg Gly Gln Leu Gly] (H-[dP][dK][dI][dS][dQ][dY]G[dQ][dR][dR][dR]G[dQ][dL]G-OH; N-terminus and C-terminus assumed) | displayed cellular rounding | – | – | 2-5% | – | –
CC(C)C[C@@H](NC(=O)[C@H]1CCCN1C(=O)[C@@H](C)NC(=O)[C@@H](Cc1c[nH]cn1)NC(=O)[C@H](N)CCCNC(=N)N)C(=O)N[C@H](C)C(=O)N[C@H](CCCNC(=N)N)C(=O)NCC(=O)N[C@H](CO)C(=O)N[C@H](Cc1c[nH]c2ccccc12)C(=O)N[C@H](CCCNC(=N)N)C(=O)NCC(=O)N[C@H](CCC(N)=O)C(=O)N1CCC[C@@H]1C(=O)N[C@H](CCC(N)=O)C(=O)N[C@H](CCC(N)=O)C(=O)NCC(=O)N1CCC[C@@H]1C(=O)N[C@H](CCC(N)=O)C(=O)N[C@H](CCCNC(=N)N)C(=O)N[C@H](CCCNC(=N)N)C(=O)NCC(=O)N[C@H](CCC(N)=O)C(=O)N[C@H](CC(C)C)C(=O)NCC(=O)NCC(=O)N[C@H](CCCNC(=N)N)C(=O)N[C@H](CCCNC(=N)N)C(=O)N[C@H](CCCNC(=N)N)C(=O)N[C@H](CCC(N)=O)C(=O)N[C@H](CCCNC(=N)N)C(=O)N[C@H](CCCNC(=N)N)C(=O)N[C@H](CCCCN)C(=O)N[C@H](CCCCN)C(=O)N[C@H](CCCNC(=N)N)C(=O)NCC(=O)O [PYC38/39D-TAT] (H-[dR][dH][dA][dP][dL][dA][dR]G[dS][dW][dR]G[dQ][dP][dQ][dQ]G[dP][dQ][dR][dR]G[dQ][dL]GG[dR][dR][dR][dQ][dR][dR][dK][dK][dR]G-OH; N-terminus and C-terminus assumed) | – | greater neuroprotection than JNKI-1D-TAT | 83 | – | initial significant neuroprotection | –
CC[C@@H](C)[C@@H](NC(=O)[C@@H](CC(N)=O)NC(=O)[C@@H](CCC(N)=O)NC(=O)[C@@H](CCC(=O)O)NC(=O)[C@@H](Cc1c[nH]cn1)NC(=O)[C@@H](Cc1c[nH]cn1)NC(=O)[C@@H](CCCNC(=N)N)NC(=O)[C@@H](CC(C)C)NC(=O)[C@@H](CC(C)C)NC(=O)[C@H]1CCCN1C(=O)[C@H](N)CC(C)C)C(=O)N[C@H](CO)C(=O)N[C@@H](C(=O)NCC(=O)N[C@H](CCCNC(=N)N)C(=O)N[C@H](CCCNC(=N)N)C(=O)N[C@H](CCCNC(=N)N)C(=O)N[C@H](CCC(N)=O)C(=O)N[C@H](CCCNC(=N)N)C(=O)N[C@H](CCCNC(=N)N)C(=O)N[C@H](CCCCN)C(=O)N[C@H](CCCCN)C(=O)N[C@H](CCCNC(=N)N)C(=O)NCC(=O)O)C(C)C [PYC41D-TAT] | – | – | 40 | – | initial significant neuroprotection | –
